# Reference: US20030073683A1, “Administration of noncompetitive AMPA receptor antagonist for neuroprotection after traumatic brain injury” (priority 2001, published 2003)
# Like-named read-outs stand apart in the source and are kept apart here.
# Columns and labels:
# [1] = tested on: global cerebral ischemia in rats; details: cited from earlier work
# [2] = tested on: severe epilepsy not responsive to other drugs; details: patients with severe epilepsy not responsive to other drugs; cited from earlier work
# [3] = tested on: fluid-percussion brain injury; experiment: Fluid-percussion brain injury in rats: normal pyramidal neuron counts in hippocampus; assay type: in vivo, rat
# From the text: (§1) Rat Model. Fasted male Sprague-Dawley rats, weighing 290-390 g were employed. The animals were initially anesthetized with 3% halothane, 70% nitrous oxide, and a balance of oxygen. Rats were positioned in a stereotaxic frame following endotracheal intubation. A 4.8-mm craniotomy was made overlying the right parietal cortex (3.8 mm posterior to bregma and 2.5 mm lateral to midline) as previously described by Belayev et al., J. Neurotrauma, 16: 445-453 (1999) and Dietrich et al., J. Neuropathol. (Beri.) 87: 250-258 (1994). Next, a plastic injury tube was positioned over the exposed dura matter. Dental acrylic was then used to bond the injury tube to surrounding structures. After the acrylic had hardened, the injury tube was plugged with a Gelfoam sponge, the scalp closed with sutures, and the animal was returned to its cage and allowed to recover overnight.
# (§2) Fluid-Percussion Brain Injury. The following day, the rats were reanesthetized with halothane, orotracheally intubated, and maintained on 70% nitrous oxide, 1.5% halothane, and a balance of oxygen. Temperature probes were inserted into the rectum (CMA/150 Temperature Controller, CMA/Microdialysis AB, Stockholm, Sweden) and the left temporalis muscle (Thermocouple Probe, Omega Engineering, Stanford, Conn.), and separate heating lamps were used to maintain rectal temperature and temporalis muscle temperature at 37.0-37.5° C. The right femoral artery and vein were catheterized for continuous blood pressure monitoring and periodic blood sampling for arterial gases, pH, hematocrit, and plasma glucose (measurements taken 15 min before TBI and 15 min after TBI). Rectal temperature and body weight was monitored before trauma and periodically for 7 days after trauma. Mean arterial blood pressure (MABP) was measured via an indwelling femoral arterial catheter connected to a precalibrated Statham pressure transducer (model P23XL, Viggo-Spectramed Inc., Oxnard, Calif., USA) and was recorded continuously (model RS3400 polygraph, Gould, Inc., Valley View, Ohio, USA). Serial measurements were made of arterial blood gases and pH (model ABL 330, Radiometer America, Inc. Westlake, Ohio, USA) and plasma glucose (model 2300 Stnt; Yellow Springs Instrument Co., Inc., Yellow Springs, Ohio, USA).
# (§3) A fluid-percussion device was connected to the injury tube of the rat's skull. This device consisted of a saline-filled cylindrical Plexiglas reservoir having a rubber-coated piston at one end, a transducer housing to permit measurement of pressure transients, and a connecting device adapted to the rat's skull. Injury was induced by the descent of a pendulum, conveying a pressure transient of 1.5-2.0 atm. to the right dorsolateral parietal cortex (see Dietrich et al., J. Neuropathol. (Beri.), 87: 250-258 (1994)). Sham-operated animals (n=9) underwent similar surgical procedures but were not injured.
# (§4) Drug-Infusion System. The femoral-vein cannula was tunneled subcutaneously so as to exit from the dorsal neck and was connected to a swivel device (Stoelting Co., Wood Dale, Ill., USA) attached to the roof of a spacious cage. This device allowed bi-directional rotation. PE-50 tubing extending from the other end of the device was joined to a disposable syringe attached to an infusion pump (KDS-100, KD Scientific, Boston, Mass., USA). This tethering system allowed the rats free movement without interfering with the patency of the cannula during drug administration.
# (§5) Drug Administration. Talampanel (Lilly Research Laboratories, Indianapolis, Ind., USA; bolus infusion of 4 mg/kg followed by infusion of 4 mg/kg/h over 72 hr) or vehicle (40% 2-hydroxylpropyl-β-cyclodextrin solution, 0.3-ml bolus plus 0.3 ml/kg/hr over 72 hr) was administered I.V. beginning 30 min or 3 hr after trauma or sham operation.
# Histopathology of Hippocampus. […]
# [4] = tested on: phenytoin-resistant status epilepticus; details: in vivo; cited from earlier work
# [5] = tested on: global ischemia in gerbils; details: 2.5-5 mg/kg, cited from earlier work
# Sprague-Dawley rats = details: rat, in vivo
# From the text: Fluid-Percussion Brain Injury. The following day, the rats were reanesthetized with halothane, orotracheally intubated, and maintained on 70% nitrous oxide, 1.5% halothane, and a balance of oxygen. Temperature probes were inserted into the rectum (CMA/150 Temperature Controller, CMA/Microdialysis AB, Stockholm, Sweden) and the left temporalis muscle (Thermocouple Probe, Omega Engineering, Stanford, Conn.), and separate heating lamps were used to maintain rectal temperature and temporalis muscle temperature at 37.0-37.5° C. The right femoral artery and vein were catheterized for continuous blood pressure monitoring and periodic blood sampling for arterial gases, pH, hematocrit, and plasma glucose (measurements taken 15 min before TBI and 15 min after TBI). Rectal temperature and body weight was monitored before trauma and periodically for 7 days after trauma. Mean arterial blood pressure (MABP) was measured via an indwelling femoral arterial catheter connected to a precalibrated Statham pressure transducer (model P23XL, Viggo-Spectramed Inc., Oxnard, Calif., USA) and was recorded continuously (model RS3400 polygraph, Gould, Inc., Valley View, Ohio, USA). Serial measurements were made of arterial blood gases and pH (model ABL 330, Radiometer America, Inc. Westlake, Ohio, USA) and plasma glucose (model 2300 Stnt; Yellow Springs Instrument Co., Inc., Yellow Springs, Ohio, USA). […]
# flexor reflexes in cats = details: in vivo; cited from earlier work
# [6] = tested on: conscious male Sprague-Dawley rats; experiment: Cardiovascular effects in conscious rats; assay type: in vivo, rat; details: single oral doses of 0.1, 0.3, 3 or 10 mg/kg; 2 hr
# Method: Talampanel was examined for potential cardiovascular effects in conscious male Sprague-Dawley rats for 2 hr, following single oral doses of 0.1, 0.3, 3 or 10 mg/kg. The cardiovascular variables measured included systolic, diastolic and mean arterial pressure, arterial pulse pressure, and heart rate. […] Thus, taken together, these in vitro and in vivo studies makes AMPA antagonists and specifically talampanel attractive candidates for a number of therapeutic indications (data not shown).
# kindled seizures = details: cited from earlier work
# [7] = tested on: fluid-percussion brain injury; experiment: Fluid-percussion brain injury in rats: histopathological contusion areas; assay type: in vivo, rat; details: for reduction of mean contusion area vs vehicle-treated rats: 4 mg/kg bolus + 4 mg/kg/h over 72 hr I.V.
# From the text: as §1, §2, §3, §4, §5
# Histopathological Analysis of Brain Trauma. Animals were allowed to survive for 7 days following fluid-percussion brain injury. […]
# rats = experiment: Preliminary experiment with continuous infusion in rats (clinical signs); assay type: in vivo, rat; details: doses of 8 and 10 mg/kg (5, 8 or 10 mg/kg tested)
# Method: The dosage was chosen because talampanel has been studied in vivo in a gerbil model of global ischemia (Lodge et al., Neuropharmacology, 35: 1681-1688 (1996)). […] Therefore, the dose was reduced to about 5 mg/kg.
# [8] = treatment begun at 3 hr after trauma
smiles,measurement,setting,value
"CC1=NN=C(c2ccc(N)cc2)c2cc3c(cc2C1)OCO3 [GYKI 52466, 1-(4-aminophenyl)-4-methyl-7,8-methylene-dioxy-5H-2,3-benzodiazepine]",neuronal damage in the CA1 sector of the hippocampus,[1]; drug pretreatment but not posttreatment,significantly attenuated
same,striatal neuronal damage,[1]; pretreatment or posttreatment,not affected by either drug treatment
same,functional deficits (learned maze responses),[1]; pretreatment vs posttreatment,pretreatment but not posttreatment reduced functional deficits
"CC(=O)N1N=C(c2ccc(N)cc2)c2cc3c(cc2C[C@H]1C)OCO3 [talampanel, (R)-7-acetyl-5-(4-aminophenyl)-8,9-dihydro-8-methyl-7H-1,3-dioxolo [4,5-h][2,3]benzodiazepine]",clinical outcome in patients,[2],positive results
same,numbers of normal neurons in CA1 and CA3 sectors of sham animals,"[3]; sham animals, vehicle or talampanel (30 min or 3 hr)",identical in all groups
same,survival of pyramidal neurons in the CA1 sector of hippocampus,[3]; treatment 30 min after trauma,increased survival
same,"numbers of normal neurons in CA3 sector, statistical comparison with vehicle",[3]; treatment at 30 min,did not differ statistically between groups
same,normal pyramidal-neuron counts CA1 vs vehicle,[3]; treatment begun at 3 hr,almost identical in both groups
same,normal pyramidal-neuron counts in the hippocampal CA3 sector vs vehicle,[3]; treatment begun at 3 hr,did not differ between groups
same,ischemic damage in all three subsectors of the hippocampal CA1 sector vs vehicle,[3]; treatment starting at 30 min,significantly attenuated ischemic damage
same,seizures in status epilepticus,[4],arrested seizures in a dose-related manner
same,survival of hippocampal CA1 neurons / neuroprotection after global ischemia,[5],significantly neuroprotective
same,survival of hippocampal CA1 neurons / neuroprotection after global ischemia,[5]; listed as Talampanel,led to survival of hippocampal CA1 neurons
same,mortality,Sprague-Dawley rats,None of the animals died
same,"rectal and cranial temperatures, arterial blood gases, plasma glucose, arterial blood pressure, body weight",Sprague-Dawley rats,no significant differences between groups
same,flexor reflexes,flexor reflexes in cats,inhibited flexor reflexes
same,"systolic, diastolic and mean arterial pressure, arterial pulse pressure, heart rate",[6],No changes were observed
same,chemically kindled seizures,kindled seizures; 12.5 mg/kg,suppressed chemically kindled seizures
same,electrically kindled seizures,kindled seizures; 20 mg/kg,suppressed
same,reduction of mean contusion area vs vehicle-treated rats,"[7]; bregma level −5.8 mm, treatment 30 min after trauma, 7 days after trauma",85%
same,reduction of mean contusion area vs vehicle-treated rats,"[7]; bregma level −6.8 mm, treatment 30 min after trauma, 7 days after trauma",97%
same,reduction of total contusion area vs vehicle-treated rats,"[7]; treatment 30 min after trauma, 7 days after trauma",70%
same,overall contusion volume,"[7]; treatment 30 min after trauma, moderate fluid-percussion brain injury",significant reduction
same,contusion foci in brain sections (photomicrographs),"[7]; treatment 30 min after trauma, vs vehicle-treated rats","smaller contusion foci, typically confined to the deeper cortical layers"
same,neuroprotective effect,[7]; treatment begun at 3 hr,lost
same,contusion area at bregma levels vs vehicle-treated rats,[7]; [8],reduced only at one bregma level (−6.8 mm)
same,"total contusion area, statistical comparison with vehicle-treated rats",[7]; [8],did not differ statistically
same,clinical signs,rats,clinical signs of ataxia
